The IC50 is the concentration that gives 50% inhibition.

The structures appear in SMILES notation.

The first experiment deals with recombinant human ACC1 (Homo sapiens (Human), UniProt Q13085). In words: Measurement of inhibitory activity on human ACC1 (MALDI-TOF MS, conversion of acetyl CoA to malonyl CoA). Type of experiment: biochemical. The following applies: recombinant human ACC1, room temperature, 1 to 3 hours. From the text:
After a cDNA encoding human ACC1 (1 amino acid residue to 2346 amino acid residues from the N-terminus) was cloned from human liver cDNA library (BioChain), human ACC1 gene containing myc-tag and His-tag sequence at 3′ terminus was inserted into pIEXBAC3 (Novagen). Recombinant baculovirus was generated using FlashBACGOLD system (Oxford Expression Technologies) according to the manufacturer's protocol. To express human ACC1, Sf-9 cells were infected with recombinant baculovirus. After infected cells were disrupted, the filtrated lysate was subjected to Ni-affinity chromatography and anion-exchange chromatography. The fractions containing human ACC1 protein were pooled as recombinant human ACC1 solution.
(§1) Recombinant human ACC1 and recombinant human ACC2, which were prepared by the method mentioned above, were preincubated with assay buffer solution (50 mM HEPES-KOH (pH 7.4), 10 mM magnesium chloride, 6-10 mM potassium citrate, 4 mM reduced form of glutathione, 1.5 mg/ml bovine serum albumin) for one hour. Then, 0.2 μL of each this invention compound solution (in DMSO) were dispensed to 384-well microplate, 5 μL of the preincubated enzyme solution and 5 μL of substrate solution (50 mM HEPES-KOH (pH 7.4), 1 mM ATP, 0.8 mM acetyl CoA and 25-50 mM potassium bicarbonate) were added to microplate. After centrifugation and shaking, the reaction mixtures were incubated in a humidified box at room temperature for 1 to 3 hours. After the incubation, the enzyme reactions were stopped by the addition of EDTA. Then, after the samples were cocrystallized with CHCA (α-cyano-4-hydroxy cinnamic acid) matrices on MALDI target plate, by using the matrix assist laser […] time-of-flight mass spectrometer (MALDI-TOF MS), samples were measured in reflector negative mode. Deprotonated ions of acetyl CoA (AcCoA) of substrate and malonyl CoA (MalCoA) of the reaction product were detected, then, the conversion rates of acetyl CoA to malonyl CoA was calculated by the intensity of [MalCoA-H]−/(Intensity of [MalCoA-H].+Intensity of [AcCoA-H]—) using each signal strength. […] In addition, potassium citrate concentrations in assay buffer solution, potassium hydrogen carbonate concentrations in substrate solution and incubation time were adjusted by each lot of enzyme.
Turning to `CC(=O)N[C@@H](C)CO[C@H]1CC[C@H](Cc2nc3c(F)cc(OCC(F)F)c(F)c3n2C)CC1` [Example I-252], the IC50 is over 100000 nM.

`C[C@@H](CO[C@H]1CC[C@H](Oc2nc3ncc(OC4CC4)cc3n2C)CC1)NC(N)=O` [Example I-204]: the IC50 is over 100000 nM.

Consider `C[C@@H](CO[C@H]1CC[C@H](Oc2nc3c(F)cc(OCC(F)F)c(Cl)c3n2C)CC1)NS(N)(=O)=O` [Example I-248], for which the IC50 is over 100000 nM.

For the next experiment, the target named is recombinant human ACC2 (Homo sapiens (Human), UniProt O00763). As to the kind of experiment: Measurement of inhibitory activity on human ACC2 (MALDI-TOF MS, conversion of acetyl CoA to malonyl CoA). Type of experiment: biochemical. The following applies: recombinant human ACC2, room temperature, 1 to 3 hours.
Sequence of recombinant human ACC2 (O00763 27-2458): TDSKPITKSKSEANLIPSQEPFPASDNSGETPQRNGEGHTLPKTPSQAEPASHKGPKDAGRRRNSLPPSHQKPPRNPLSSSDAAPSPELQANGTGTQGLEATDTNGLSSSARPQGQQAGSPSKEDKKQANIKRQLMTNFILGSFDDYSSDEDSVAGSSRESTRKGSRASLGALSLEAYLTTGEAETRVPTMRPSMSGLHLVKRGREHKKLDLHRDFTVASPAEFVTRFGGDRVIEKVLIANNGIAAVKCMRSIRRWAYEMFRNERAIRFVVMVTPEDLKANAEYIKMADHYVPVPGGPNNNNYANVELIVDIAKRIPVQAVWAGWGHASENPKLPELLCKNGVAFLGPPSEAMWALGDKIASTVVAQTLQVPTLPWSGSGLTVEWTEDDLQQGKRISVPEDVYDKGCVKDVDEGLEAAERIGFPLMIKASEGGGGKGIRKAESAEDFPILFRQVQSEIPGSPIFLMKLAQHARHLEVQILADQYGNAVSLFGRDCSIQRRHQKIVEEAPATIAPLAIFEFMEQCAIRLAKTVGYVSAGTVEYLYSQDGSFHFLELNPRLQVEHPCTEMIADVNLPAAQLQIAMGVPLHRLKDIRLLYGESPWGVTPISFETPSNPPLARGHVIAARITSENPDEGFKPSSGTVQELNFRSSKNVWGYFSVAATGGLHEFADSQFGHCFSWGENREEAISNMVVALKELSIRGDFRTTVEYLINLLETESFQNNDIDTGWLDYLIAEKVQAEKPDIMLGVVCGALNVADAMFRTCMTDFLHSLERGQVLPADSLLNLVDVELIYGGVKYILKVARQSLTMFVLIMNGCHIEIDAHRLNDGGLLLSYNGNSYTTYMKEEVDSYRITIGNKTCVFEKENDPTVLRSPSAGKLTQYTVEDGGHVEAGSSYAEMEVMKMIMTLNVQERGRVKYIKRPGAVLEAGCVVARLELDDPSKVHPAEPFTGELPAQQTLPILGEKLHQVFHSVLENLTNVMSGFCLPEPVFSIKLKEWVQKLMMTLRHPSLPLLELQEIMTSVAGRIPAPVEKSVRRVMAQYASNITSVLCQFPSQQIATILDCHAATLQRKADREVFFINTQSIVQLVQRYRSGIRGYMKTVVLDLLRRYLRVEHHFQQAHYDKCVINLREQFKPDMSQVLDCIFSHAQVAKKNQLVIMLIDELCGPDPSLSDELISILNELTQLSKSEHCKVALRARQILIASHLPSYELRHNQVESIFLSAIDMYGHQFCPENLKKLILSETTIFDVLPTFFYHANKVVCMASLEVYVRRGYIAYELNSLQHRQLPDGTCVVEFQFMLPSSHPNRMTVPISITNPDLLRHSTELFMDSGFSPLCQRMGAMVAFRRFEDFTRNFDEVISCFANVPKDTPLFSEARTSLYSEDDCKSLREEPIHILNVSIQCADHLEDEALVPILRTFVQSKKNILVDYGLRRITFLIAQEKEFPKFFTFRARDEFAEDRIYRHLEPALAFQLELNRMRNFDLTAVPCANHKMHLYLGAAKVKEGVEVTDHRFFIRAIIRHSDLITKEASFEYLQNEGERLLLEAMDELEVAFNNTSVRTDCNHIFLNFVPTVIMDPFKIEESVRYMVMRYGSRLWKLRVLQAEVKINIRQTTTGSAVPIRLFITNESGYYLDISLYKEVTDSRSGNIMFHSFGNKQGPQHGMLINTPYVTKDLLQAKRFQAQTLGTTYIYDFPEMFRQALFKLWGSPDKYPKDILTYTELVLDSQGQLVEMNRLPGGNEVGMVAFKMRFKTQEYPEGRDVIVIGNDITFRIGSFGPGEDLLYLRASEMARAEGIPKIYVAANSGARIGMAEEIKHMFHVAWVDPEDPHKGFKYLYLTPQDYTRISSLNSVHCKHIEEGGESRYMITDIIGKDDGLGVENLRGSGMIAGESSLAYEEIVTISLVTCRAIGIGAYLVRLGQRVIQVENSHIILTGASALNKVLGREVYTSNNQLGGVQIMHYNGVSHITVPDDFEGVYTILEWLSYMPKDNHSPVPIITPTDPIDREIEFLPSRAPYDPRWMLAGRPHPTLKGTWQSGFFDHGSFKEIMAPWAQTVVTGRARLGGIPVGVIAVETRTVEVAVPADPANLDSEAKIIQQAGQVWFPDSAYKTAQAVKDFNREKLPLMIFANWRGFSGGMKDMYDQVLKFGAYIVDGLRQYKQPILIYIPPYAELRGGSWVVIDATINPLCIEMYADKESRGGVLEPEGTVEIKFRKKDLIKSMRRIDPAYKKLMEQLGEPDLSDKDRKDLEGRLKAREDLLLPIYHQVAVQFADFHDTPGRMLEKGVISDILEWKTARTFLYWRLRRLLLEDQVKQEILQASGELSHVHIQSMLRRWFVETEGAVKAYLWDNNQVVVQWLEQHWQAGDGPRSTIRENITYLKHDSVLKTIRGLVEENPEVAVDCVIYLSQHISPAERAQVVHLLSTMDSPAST
From the text: After a cDNA encoding human ACC2 (27 amino acid residue to 2458 amino acid residues from the N-terminus) was cloned from human kidney cDNA library (Clontech), human ACC2 gene containing His-tag sequence at 5′ terminus was inserted into pFastBac1 (Invitrogen). Recombinant baculovirus was generated using Bac-to-Bac baculovirus expression system (Invitrogen) according to the manufacturer's protocol. To express human ACC2, Sf-9 cells were infected with recombinant baculovirus. After infected cells were disrupted, the filtrated lysate was subjected to Ni-affinity chromatography and anion-exchange chromatography. The fractions containing human ACC2 protein were pooled as recombinant human ACC2 solution.
as §1
Turning to `CC(=O)N[C@@H](C)CO[C@H]1CC[C@H](Oc2nc3ccc(OC4(C)CC4)cc3n2C)CC1` [Example I-202], the concentration for half-maximal inhibition (IC50) amounted to 17 nM.

Take `CC(=O)N[C@@H](C)CO[C@H]1CC[C@H](Oc2nc3c(C#N)cc(OC4CC4)cc3n2C)CC1` [Example I-225]: the IC50 amounted to 33 nM.

With `CC(=O)N[C@@H](C)CO[C@H]1CC[C@H](Oc2nc3c(F)cc(OC4COC4)c(Cl)c3n2C)CC1` [Example I-219], the IC50 was 12 nM.

As to `CC(=O)N[C@@H](C)CO[C@H]1CC[C@H](Oc2nc3cc(F)c(Cl)cc3n2C)CC1` [Example I-217], the IC50 came out at 64 nM.

Regarding `C[C@@H](CO[C@H]1CC[C@H](Oc2nc3c(Cl)cc(OC4CC4)cc3n2C)CC1)NC(N)=O` [Example I-222], the IC50 was found to be 17 nM.

In the case of `CC(=O)N[C@@H](CF)CO[C@H]1CC[C@H](Oc2nc3c(C#N)cc(OC4CC4)c(F)c3n2C)CC1` [Example I-206], the 50% inhibitory concentration (IC50) stood at 12 nM.

Consider `CC(=O)N[C@@H](C)CO[C@H]1CC[C@H](Oc2nc3ccc(OC4CC4)cc3n2C)CC1` [Example I-221], for which the concentration for half-maximal inhibition (IC50) is 9.1 nM.

For the compound `CC(=O)N[C@H](C)C(F)(F)C[C@H]1CC[C@H](Oc2nc3c(F)cc(OCC(F)F)c(F)c3n2C)CO1` [Example I-220], the IC50 was found to be 180 nM.

On to `C[C@@H](CO[C@H]1CC[C@H](Oc2nc3cc(F)c(OC4CC4)c(F)c3n2C)CC1)NC(N)=O` [Example I-241], for which the half-inhibitory concentration (IC50) was 9.5 nM.

Turning to `CC(=O)N[C@@H](C)CO[C@H]1CC[C@H](Oc2nc3cc(F)c(F)c(F)c3n2C)CC1` [Example I-215], the IC50 came out at 17 nM.

Regarding `CC(=O)N[C@@H](C)CO[C@H]1CC[C@H](Oc2nc3c(F)cc(OC4(C)COC4)c(F)c3n2C)CC1` [Example I-203], the IC50 came to 110 nM.

In the case of `C[C@@H](CO[C@H]1CC[C@H](Oc2nc3cc(F)c(OC4CC4)cc3n2C)CC1)NC(N)=O` [Example I-218], the IC50 was 120 nM.

Take `C[C@@H](CO[C@H]1CC[C@H](Oc2nc3c(F)cc(OCC(F)F)c(Cl)c3n2C)CC1)NS(N)(=O)=O` [Example I-248]: the IC50 came to 160 nM.

On to `CC(=O)N[C@@H](C)CO[C@H]1CC[C@H](Oc2nc3cnc(OC4CC4)cc3n2C)CC1` [Example I-224], for which the concentration for half-maximal inhibition (IC50) was 150 nM.

Consider `CC(=O)N[C@@H](C)CO[C@H]1CC[C@H](Oc2nc3c(C#N)cc(OC4CCC4)c(F)c3n2C)CC1` [Example I-226], for which the IC50 is 6.1 nM.

`CC(=O)N[C@@H](C)CO[C@H]1CC[C@H](Oc2nc3c(F)cc(O[C@H]4C[C@H](O)C4)c(F)c3n2C)CC1` [Example I-223]: the IC50 is 87 nM.

In the case of `C[C@@H](CO[C@H]1CC[C@H](Oc2nc3ccc(OC4CC4)c(F)c3n2C)CC1)NC(N)=O` [Example I-198], the IC50 came out at 5.3 nM.

In the case of `CC(=O)N[C@@H](C)CO[C@H]1CC[C@@H](Cc2nc3c(F)cc(OCC(F)F)c(F)c3n2C)CC1` [Example I-251], the IC50 stood at 100 nM.

For `CC(=O)N[C@@H](C)CO[C@H]1CC[C@H](Oc2nc3ccc(OC4CC4)nc3n2C)CC1` [Example I-234], the half-inhibitory concentration (IC50) turned out to be 13 nM.

On to `C[C@@H](CO[C@H]1CC[C@H](Oc2nc3c(F)c(F)c(F)c(F)c3n2C)CC1)NC(N)=O` [Example I-235], for which the IC50 was found to be 43 nM.

With `CC(=O)N[C@@H](C)CO[C@H]1CC[C@H](Oc2nc3c(F)cc(OCC(F)F)c(F)c3n2C)CC1` [Example I-208], the half-maximal inhibitory concentration (IC50) turned out to be 8.7 nM.

As for `C[C@@H](CO[C@H]1CC[C@H](Oc2nc3c(F)cc(OC4CC4)cc3n2C)CC1)NC(N)=O` [Example I-243], the 50% inhibitory concentration (IC50) came to 5.6 nM.

In the case of `CC(=O)N[C@@H](C)CO[C@H]1CC[C@H](Oc2nc3c(F)cc(OC4CC5(COC5)C4)c(F)c3n2C)CC1` [Example I-216], the 50% inhibitory concentration (IC50) stood at 57 nM.

With `C[C@@H](CO[C@H]1CC[C@H](Oc2nc3ccc(OC4CC4)cc3n2C)CC1)NC(N)=O` [Example I-197], the concentration for half-maximal inhibition (IC50) stood at 13 nM.

Regarding `CC(=O)N[C@@H](CF)CO[C@H]1CC[C@H](Oc2nc3c(F)cc(OC4CC4)cc3n2C)CC1` [Example I-201], the IC50 was found to be 4.7 nM.

Take `COC(=O)N[C@@H](CF)CO[C@H]1CC[C@H](Oc2nc3c(F)cc(OCC(F)F)c(F)c3n2C)CC1` [Example I-239]: the IC50 amounted to 30 nM.

Consider `C[C@@H](CO[C@H]1CC[C@H](Oc2nc3ccc(OC4CC4)nc3n2C)CC1)NC(N)=O` [Example I-240], for which the IC50 was determined as 44 nM.

On to `CC(=O)N[C@@H](CF)CO[C@H]1CC[C@H](Oc2nc3cnc(OC4CC4)c(F)c3n2C)CC1` [Example I-210], for which the IC50 was 7.2 nM.

As to `CC(=O)N[C@@H](C)CO[C@H]1CC[C@H](Oc2nc3c(F)cc(OC(F)F)c(F)c3n2C)CC1` [Example I-231], the IC50 was found to be 10 nM.

Regarding `CC(=O)N[C@@H](C)CC[C@H]1OC[C@H](Oc2nc3c(F)cc(OCC(F)F)c(F)c3n2C)CC1(F)F` [Example I-228], the 50% inhibitory concentration (IC50) is 13 nM.

For `CC(=O)N[C@@H](C)CC[C@H]1OC[C@H](Oc2nc3c(F)cc(OCC(F)F)c(F)c3n2C)C[C@@H]1F` [Example I-196], the half-maximal inhibitory concentration (IC50) amounted to 10 nM.

In the case of `Cn1c(O[C@H]2CC[C@H](OC[C@H](CF)NC(N)=O)CC2)nc2c(F)cc(OCC(F)F)c(F)c21` [Example I-232], the concentration for half-maximal inhibition (IC50) came to 11 nM.

`CC(=O)N[C@@H](C)C(F)(F)C[C@H]1CC[C@H](Oc2nc3c(F)cc(OCC(F)F)c(F)c3n2C)CO1` [Example I-214]: the half-maximal inhibitory concentration (IC50) turned out to be 12 nM.

Take `CC(=O)N[C@@H](CF)CO[C@H]1CC[C@H](Oc2nc3c(F)cc(OCC(F)F)c(Cl)c3n2C)CC1` [Example I-205]: the half-inhibitory concentration (IC50) was 4.6 nM.

Consider `CC(=O)N[C@@H](C)CO[C@H]1CC[C@H](Oc2nc3c(F)c(F)c(OCC(F)F)c(F)c3n2C)CC1` [Example I-209], for which the IC50 was determined as 5.3 nM.

For `C[C@@H](CO[C@H]1CC[C@H](Oc2nc3cnc(OC4CC4)cc3n2C)CC1)NC(N)=O` [Example I-229], the half-inhibitory concentration (IC50) is 600 nM.

`Cn1c(O[C@H]2CC[C@H](OC[C@H](CF)NC(N)=O)CC2)nc2c(F)cc(OC3CC3)cc21` [Example I-213]: the IC50 was found to be 8.9 nM.

Consider `CC(=O)N[C@@H](C)CO[C@H]1CC[C@H](Oc2nc3cc(F)c(OC4CC4)c(F)c3n2C)CC1` [Example I-207], for which the 50% inhibitory concentration (IC50) is 5.4 nM.

In the case of `CC(=O)N[C@@H](C)/C=C(\F)[C@@H]1CC[C@@H](Oc2nc3c(F)cc(OCC(F)F)c(F)c3n2C)CO1` [Example I-250], the half-maximal inhibitory concentration (IC50) was found to be 21 nM.

Regarding `CC(=O)N[C@@H](C)CO[C@H]1CC[C@H](Oc2nc3ccc(OC4CC4)c(F)c3n2C)CC1` [Example I-247], the half-inhibitory concentration (IC50) was found to be 3.9 nM.

For the compound `C[C@@H](CO[C@H]1CC[C@H](Oc2nc3cnc(OC4CC4)c(F)c3n2C)CC1)NC(N)=O` [Example I-237], the half-inhibitory concentration (IC50) turned out to be 12 nM.

Regarding `Cn1c(O[C@H]2CC[C@H](OC[C@H](CF)NC(=O)CC#N)CC2)nc2c(F)cc(OCC(F)F)c(F)c21` [Example I-227], the IC50 amounted to 44 nM.

Regarding `CC(=O)N[C@@H](C)CO[C@H]1CC[C@H](Oc2nc3cc(F)c(OC4CC4)cc3n2C)CC1` [Example I-212], the 50% inhibitory concentration (IC50) worked out at 55 nM.

With `CC(=O)N[C@@H](C)CO[C@H]1CC[C@H](Oc2nc3cc(Cl)c(F)cc3n2C)CC1` [Example I-211], the IC50 was 120 nM.

With `CC(=O)N[C@@H](C)CO[C@H]1CC[C@H](Oc2nc3c(F)cc(OCC4(F)COC4)c(F)c3n2C)CC1` [Example I-195], the 50% inhibitory concentration (IC50) turned out to be 35 nM.

For `CC(=O)N[C@@H](C)CO[C@H]1CC[C@H](Oc2nc3c(F)cc(OCC(C)(C)C#N)c(F)c3n2C)CC1` [Example I-244], the IC50 turned out to be 26 nM.

As to `CC(=O)N[C@@H](C)CO[C@H]1CC[C@H](Oc2nc3cc(F)c(F)cc3n2C)CC1` [Example I-238], the 50% inhibitory concentration (IC50) worked out at 83 nM.

Turning to `CC(=O)N[C@@H](C)CO[C@H]1CC[C@H](Oc2nc3c(F)cc(O[C@H]4C[C@@H](O)C4)c(F)c3n2C)CC1` [Example I-246], the IC50 was 78 nM.

`CC(=O)N[C@@H](C)CC[C@H]1OC[C@H](Oc2nc3c(F)cc(OC4CC4)cc3n2C)CO1` [Example I-249]: the IC50 was found to be 6.6 nM.

(Values after patent publication US10233156B2, “9-membered fused ring derivative” (Shionogi & Co., Ltd., priority 2015, dated 2019).)
